Data taken from patent publication US8541449B2, “Substituted isoquinolines and isoquinolinones as Rho kinase inhibitors” (Sanofi, priority 2008, dated 2013).

How the values were obtained:
Assay type in all cases: biochemical
[1] = biological target: T1, human recombinant ROCK II (Homo sapiens, UniProt O75116); experiment: Determination of Rho kinase inhibition (Caliper peptide phosphorylation assay); conditions: 60 min at 32° C., negative decadal logarithm of the IC50
T1 construct: N-terminal His6-tagged recombinant human ROCK-II residues 11-552; His6 (N); purchased Millipore GmbH, Schwalbach, Germany
T1 sequence (O75116 11-552): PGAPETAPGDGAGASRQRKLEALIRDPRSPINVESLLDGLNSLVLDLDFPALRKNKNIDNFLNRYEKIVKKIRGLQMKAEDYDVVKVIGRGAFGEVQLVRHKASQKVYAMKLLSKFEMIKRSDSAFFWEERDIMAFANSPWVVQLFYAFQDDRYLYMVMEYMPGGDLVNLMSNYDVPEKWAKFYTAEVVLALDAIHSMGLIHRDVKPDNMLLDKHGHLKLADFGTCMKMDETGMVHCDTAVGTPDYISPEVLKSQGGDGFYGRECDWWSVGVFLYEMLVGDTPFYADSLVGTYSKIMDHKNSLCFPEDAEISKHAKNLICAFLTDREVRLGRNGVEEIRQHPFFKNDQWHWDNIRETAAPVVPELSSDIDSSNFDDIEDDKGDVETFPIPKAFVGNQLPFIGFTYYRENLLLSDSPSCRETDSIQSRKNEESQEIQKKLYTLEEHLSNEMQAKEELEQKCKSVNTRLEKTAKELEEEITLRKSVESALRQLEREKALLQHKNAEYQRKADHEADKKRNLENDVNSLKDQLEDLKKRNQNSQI
Description: Determination of Rho Kinase Inhibition
To measure Rho-kinase inhibition, IC50 values were determined according to the following protocol:
Active human recombinant ROCK II (N-terminal His6-tagged recombinant human ROCK-II residues 11-552) was purchased from Millipore GmbH, Schwalbach, Germany. The peptide substrate, Fluorescein-[…]-COOH, was obtained from JPT Peptide Technologies, Berlin, Germany. Adenosine-5′-triphosphate (ATP), bovine serum albumine (BSA), dimethylsulphoxide (DMSO), 4-(2-Hydroxyethyl)piperazine-1-ethanesulfonic acid (Hepes), Brij-35, dithiothreitol (DTT) and Pluronic F-68 were purchased from Sigma-Aldrich, Munich, Germany. Tris(hydroxymethyl)-aminomethane (Tris), magnesium chloride, NaOH, 1M HCl and EDTA were obtained from Merck Biosciences, Darmstadt, Germany. “Complete” protease inhibitor was from Roche Diagnostics, Mannheim, Germany.
(§1) Test compounds were diluted to the appropriate concentrations in buffer 1 (25 mM Tris-HCl, pH 7.4, 5 mM MgCl2, 2 mM DTT, 0.02% (w/v) BSA, 0.01% Pluronic F-68 and 3% DMSO). The ROCK II enzyme was diluted to a concentration of 100 ng/mL in buffer 2 (25 mM Tris-HCl, pH 7.4, 5 mM MgCl2, 2 mM DTT and 0.02% (w/v) BSA). The peptide substrate and ATP were diluted to concentrations of 3 μM and 120 μM, respectively, in the buffer 2. Two μl of the compound solution were mixed with 2 μl of the diluted enzyme in a 384-well small volume microtiter plate (Greiner, Bio-One, Frickenhausen, Germany), and the kinase reaction was initiated by addition of 2 μl of the solution containing peptide substrate and ATP. After 60 min incubation at 32° C., the reaction was stopped by addition of 20 μl of a solution containing 100 mM Hepes-NaOH, pH 7.4, 0.015% (v/v) Brij-35, 45 mM EDTA and 0.227% chip coating reagent 1 (Caliper Lifescience Inc, Hopkinton, Mass.). Phosphorylation of the substrate peptide was then detected on a Caliper 3000 instrument essentially as described by Pommereau et al (J. Biomol. Screening 9(5), 409-416, 2004). Separation conditions were as follows: Pressure −1.3 psi, upstream voltage −1562 V, downstream voltage −500 V, sample sip time 200 ms. Positive controls (buffer 1 instead of compound) and negative controls (buffer 1 instead of compound and buffer 2 instead of ROCK II) were run in parallel on each plate.
The following products/compounds were tested in said assay by using the respective form (salt or free base) obtained as in the examples described above and the following activities were measured

[2] = biological target: T2, recombinant human PKG1-beta (Homo sapiens, UniProt Q13976); experiment: Determination of Protein Kinase G inhibition (Caliper peptide phosphorylation assay); conditions: recombinant human PKG1-beta versus ROCK II
T2 construct: Active recombinant human PKG1-beta (full-length, with N-terminal His-tag); His-tag (N); purchased Millipore GmbH, Schwalbach, Germany
T2 sequence (Q13976 1-686 isoform Q13976-2): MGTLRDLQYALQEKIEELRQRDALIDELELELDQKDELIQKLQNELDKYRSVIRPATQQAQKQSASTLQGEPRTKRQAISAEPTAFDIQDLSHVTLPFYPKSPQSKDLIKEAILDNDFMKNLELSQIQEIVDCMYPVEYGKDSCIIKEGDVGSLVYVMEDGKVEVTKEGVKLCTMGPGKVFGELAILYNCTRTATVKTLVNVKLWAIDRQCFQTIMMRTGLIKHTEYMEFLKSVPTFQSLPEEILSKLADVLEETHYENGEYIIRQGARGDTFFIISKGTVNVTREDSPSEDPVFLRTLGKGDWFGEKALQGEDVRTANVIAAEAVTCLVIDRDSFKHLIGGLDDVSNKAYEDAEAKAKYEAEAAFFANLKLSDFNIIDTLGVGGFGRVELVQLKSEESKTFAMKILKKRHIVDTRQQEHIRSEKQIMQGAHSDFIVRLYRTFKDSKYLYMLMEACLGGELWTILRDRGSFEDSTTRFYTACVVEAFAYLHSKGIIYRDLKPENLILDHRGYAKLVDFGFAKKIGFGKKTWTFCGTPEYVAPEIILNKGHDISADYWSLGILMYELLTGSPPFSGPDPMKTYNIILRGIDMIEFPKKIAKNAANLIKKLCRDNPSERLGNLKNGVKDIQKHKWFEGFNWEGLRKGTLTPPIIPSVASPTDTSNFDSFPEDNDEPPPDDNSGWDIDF
Description: (§2) Determination of Protein Kinase A and Protein Kinase G Inhibition
(§3) To measure PKA and PKG1-beta inhibition, IC50 values were determined according to the following protocol:
(§4) Active recombinant human PKG1-beta (full-length, with N-terminal His-tag) was purchased from Millipore GmbH, Schwalbach, Germany. Active recombinant human PKA (residues 1-351, N-terminal His-tag) was obtained from Invitrogen, Karlsruhe, Germany. The peptide substrate, Fluorescein-[…]-COOH, was obtained from JPT Peptide Technologies, Berlin, Germany. Adenosine-5′-triphosphate (ATP), bovine serum albumine (BSA), dimethylsulphoxide (DMSO), 4-(2-Hydroxyethyl)piperazine-1-ethanesulfonic acid (Hepes), Brij-35, dithiothreitol (DTT) and Pluronic F-68 were purchased from Sigma-Aldrich, Munich, Germany. Tris(hydroxymethyl)-aminomethane (Tris), magnesium chloride, NaOH, 1M HCl and EDTA were obtained from Merck Biosciences, Darmstadt, Germany. “Complete” protease inhibitor was from Roche Diagnostics, Mannheim, Germany.
as §1, with “PKG1-beta and PKA were” for “The ROCK II enzyme was”, “concentrations” for “a concentration”, “150 ng/ml and 30 ng/ml, respectively,” for “100 ng/mL”, “2.” for “2 (25 mM Tris-HCl, pH 7.4, 5 mM MgCl2, 2 mM DTT and 0.02% (w/v) BSA).”, “kinase solution)” for “ROCK II)”, “plate. The following products/compounds were tested in said assay by using the respective form (salt or free base) obtained as in the examples described above and the following activities were measured.” for “plate.”

recombinant human PKA = biological target: T3, recombinant human PKA (Homo sapiens, UniProt P17612); experiment: Determination of Protein Kinase A inhibition (Caliper peptide phosphorylation assay); conditions: recombinant human PKA versus ROCK II
T3 construct: Active recombinant human PKA (residues 1-351, N-terminal His-tag); His-tag (N); purchased Invitrogen, Karlsruhe, Germany
Description: as §2, §3, §4
as §1, with “PKG1-beta and PKA were” for “The ROCK II enzyme was”, “concentrations” for “a concentration”, “150 ng/ml and 30 ng/ml, respectively,” for “100 ng/mL”, “2.” for “2 (25 mM Tris-HCl, pH 7.4, 5 mM MgCl2, 2 mM DTT and 0.02% (w/v) BSA).”, “kinase solution)” for “ROCK II)”, “plate. The following products/compounds were tested in said assay by using the respective form (salt or free base) obtained as in the examples described above and the following activities were measured.” for “plate.”

SMILES	IC50 [1]	Selectivity against PKG [2]	Selectivity against PKA (recombinant human PKA)	pIC50 [1]
COc1ccc(C(N)[C@H]2CC[C@@H](Oc3cc4cc[nH]c(=O)c4cc3Cl)CC2)cc1 (single isomer, unassigned) [Example 35, 6-{4-[Amino-(4-methoxy-phenyl)-methyl]-cyclohexyloxy}-7-chloro-2H-isoquinolin-1-one]	≤ 10 nM	>100	>1000	
COc1ccc(C(N)[C@H]2CC[C@@H](Oc3cc4cc[nH]c(=O)c4cc3Cl)CC2)cc1 (single isomer, unassigned) [Example 36, 6-{4-[Amino-(4-methoxy-phenyl)-methyl]-cyclohexyloxy}-7-chloro-2H-isoquinolin-1-one]	10 to 100 nM	>300	>300	
NC(c1ccc(F)cc1)C1CCC(Oc2cc3cc[nH]c(=O)c3cc2Cl)CC1 (single isomer, unassigned) [Example 37, 6-{4-[Amino-(4-fluoro-phenyl)-methyl]-cyclohexyloxy}-7-chloro-2H-isoquinolin-1-one]	≤ 10 nM	>300	>1000	
CC(N)(c1ccc(F)cc1)C1CCC(Oc2cc3cc[nH]c(=O)c3cc2Cl)CC1 (single isomer, unassigned) [Example 116, 6-{4-[1-Amino-1-(4-fluoro-phenyl)-ethyl]-cyclohexyloxy}-7-chloro-2H-isoquinolin-1-one]	10 to 100 nM	>10	>100	
CC(N)(C1CCC(Oc2cc3cc[nH]c(=O)c3cc2Cl)CC1)C1CC1 (single isomer, unassigned) [Example 120, 6-{4-[1-Amino-1-cyclopropyl-ethyl]-cyclohexyloxy}-7-chloro-2H-isoquinolin-1-one]	100 to 1000 nM	>10	>100	
CCC(N)(CC)C1CCC(Oc2cc3cc[nH]c(=O)c3cc2Cl)CC1 (single isomer, unassigned) [Example 122, 6-{-4-[1-Amino-1-ethyl-propyl]-cyclohexyloxy}-7-chloro-2H-isoquinolin-1-one]	10 to 100 nM	>10	>300	
CCC(N)C1CCC(Oc2cc3cc[nH]c(=O)c3cc2Cl)CC1 (single isomer, unassigned) [Example 130, 6-[4-(1-Amino-propyl)-cyclohexyloxy]-7-chloro-2H-isoquinolin-1-one]		>10	>300	++++++ (7.0≦pIC50<8.0)
NC(C1CCC(Oc2cc3cc[nH]c(=O)c3cc2Cl)CC1)C1CC1 (single isomer, unassigned) [Example 131, 6-[4-(Amino-cyclopropyl-methyl)-cyclohexyloxy]-7-chloro-2H-isoquinolin-1-one]	100 to 1000 nM	>10	>10	

The next lines start with the values.

IC50 [1]	Selectivity against PKG [2]	Selectivity against PKA (recombinant human PKA)	pIC50 [1]	SMILES
≤ 10 nM	>300	>1000		Cc1ccc(C(N)C2CCC(Oc3cc4cc[nH]c(=O)c4cc3Cl)CC2)cc1 (single isomer, unassigned) [Example 38, 6-[4-(Amino-p-tolyl-methyl)-cyclohexyloxy]-7-chloro-2H-isoquinolin-1-one]
10 to 100 nM	>100	>100		Cc1ccc(C(N)C2CCC(Oc3cc4cc[nH]c(=O)c4cc3Cl)CC2)cc1 (single isomer, unassigned) [Example 39, 6-[4-(Amino-p-tolyl-methyl)-cyclohexyloxy]-7-chloro-2H-isoquinolin-1-one]
100 to 1000 nM	>10	>10		NC(c1ccccc1)C1(c2ccccc2)CCC(Oc2cc3cc[nH]c(=O)c3cc2Cl)CC1 (single isomer, unassigned) [Example 41]
10 to 100 nM	>300	>300		NC(c1ccccc1)C1(c2ccccc2)CCC(Oc2cc3cc[nH]c(=O)c3cc2Cl)CC1 (single isomer, unassigned) [Example 42]
10 to 100 nM	>10	>100		CCCC(C)(N)C1CCC(Oc2cc3cc[nH]c(=O)c3cc2Cl)CC1 (single isomer, unassigned) [Example 121, 6-{4-[1-Amino-1-n-propyl-ethyl]-cyclohexyloxy}-7-chloro-2H-isoquinolin-1-one]
10 to 100 nM	>10	>100		CC(N)(c1ccccc1)C1CCC(Oc2cc3cc[nH]c(=O)c3cc2Cl)CC1 (single isomer, unassigned) [Example 123, 6-{4-[1-Amino-1-phenyl-ethyl]-cyclohexyloxy}-7-chloro-2H-isoquinolin-1-one]
10 to 100 nM	>10	>100		CCC(N)C1CCC(Oc2cc3cc[nH]c(=O)c3cc2Cl)CC1 (single isomer, unassigned) [Example 129, 6-[4-(1-Amino-propyl)-cyclohexyoxy]-7-chloro-2H-isoquinolin-1-one]
